In test [1] the target is T1, PBP3 from Escherichia coli (K-12) (Escherichia coli, UniProt P0AD68).
T1 construct: made in house
The experiment in a line: Bocillin-FL fluorescence polarization competition binding, E. coli PBP3. Summed up:
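Purified PBPs pre-incubated with inhibitor (E. coli PBP3 1.5 μM, 30 min; P. aeruginosa PBP3 0.75 μM, A. baumannii PBP1a 1 μM and PBP3 0.2 μM, 15 min), then Bocillin-FL 0.1 μM (0.05 μM for PBP1a) added; FP read up to 60 min. EC50 = concentration halving bound Bocillin-FL.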
(Fluorescence polarisation rises when a labelled molecule tumbles more slowly, as on binding a larger partner.)

Another test relates to A. baumannii ATCC 19606. Nature of the test: microbe, parasite or virus in culture. The test is classed as cell-based. To be noted: Acinetobacter baumannii, ATCC19606, read-out: MIC, A. baumannii ATCC 19606.
The subject of the next test is P. aeruginosa CDC-0095. Nature of the test: microbe, parasite or virus in culture. The class given is cell-based. To be noted: Pseudomonas aeruginosa, CDC0095, read-out: Minimum inhibitory concentration, P. aeruginosa CDC-0095.
In the next test the test system is A. baumannii CDC-0033. Nature of the test: microbe, parasite or virus in culture. The test is classed as cell-based. To be noted: Acinetobacter baumannii, CDC0033, read-out: MIC, A. baumannii CDC-0033.

Each structure is given as a SMILES string. Values after ≈ are worked out from the molar mass of the structure shown. Bounds are passed on as bounds.

The term EC50 denotes the concentration that produces a half-maximal response. Read a high EC50 as a less potent agent.

T1 sequence (P0AD68 1-577): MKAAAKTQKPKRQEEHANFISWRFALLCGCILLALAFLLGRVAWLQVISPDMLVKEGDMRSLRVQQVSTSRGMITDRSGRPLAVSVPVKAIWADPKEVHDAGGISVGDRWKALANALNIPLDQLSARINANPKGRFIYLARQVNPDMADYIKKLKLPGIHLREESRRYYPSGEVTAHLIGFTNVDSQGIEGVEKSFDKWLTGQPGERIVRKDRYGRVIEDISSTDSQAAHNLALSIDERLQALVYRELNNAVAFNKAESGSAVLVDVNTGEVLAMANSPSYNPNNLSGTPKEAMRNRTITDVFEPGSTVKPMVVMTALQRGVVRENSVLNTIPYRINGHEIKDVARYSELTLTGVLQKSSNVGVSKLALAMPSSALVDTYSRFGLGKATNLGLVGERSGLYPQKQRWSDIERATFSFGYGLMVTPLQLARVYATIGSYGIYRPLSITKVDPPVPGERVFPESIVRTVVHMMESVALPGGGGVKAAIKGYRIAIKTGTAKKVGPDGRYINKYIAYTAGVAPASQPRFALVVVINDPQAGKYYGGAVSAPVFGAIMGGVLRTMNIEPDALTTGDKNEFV

Molecule `CS(=O)(=O)N1CCN(C(=O)N[C@H](C(=O)N[C@H]2Cc3cccc(C(=O)O)c3OB2O)c2ccc(P(=O)(O)O)cc2)C1=O` (single isomer, unassigned) [Example 5] registered an EC50 in test [1] of 50 to 250 µM.
In the case of `CS(=O)(=O)N1CCN(C(=O)N[C@@H](C(=O)N[C@H]2Cc3cccc(C(=O)O)c3OB2O)c2ccc(P(=O)(O)O)cc2)C1=O` (single isomer, unassigned) [Example 6], the MIC with A. baumannii ATCC 19606 is 8 to 16 µg/mL (≈ 13.1 to 26.2 µM); with P. aeruginosa CDC-0095 it was over 128 µg/mL; in the test with A. baumannii CDC-0033, 32 to 64 µg/mL (≈ 52.4 to 105 µM). In test [1], this molecule displayed an EC50 of under 10 µM.
For `O=C(NCCCN1CCN(C(=O)N[C@H](C(=O)N[C@H]2Cc3ccc(F)c(C(=O)O)c3OB2O)c2cc(F)c(O)c(O)c2Cl)C(=O)C1=O)c1ccc(O)cc1Cl` (single isomer, unassigned) [Example 470], the MIC is 8 to 16 µg/mL (≈ 10.1 to 20.1 µM) in the test with A. baumannii ATCC 19606, under 1 µg/mL with P. aeruginosa CDC-0095 and 8 to 16 µg/mL (≈ 10.1 to 20.1 µM) in the test with A. baumannii CDC-0033. The EC50 in test [1] was 50 to 250 µM.
For `O=C(NCCCN1CCN(C(=O)N[C@H](C(=O)N[C@H]2Cc3ccc(F)c(C(=O)O)c3OB2O)c2cc(F)c(O)c(O)c2Cl)C(=O)C1=O)c1cc(F)c(O)cc1F` (single isomer, unassigned) [Example 472], the MIC was 2 to 4 µg/mL (≈ 2.51 to 5.03 µM) in the test with A. baumannii ATCC 19606, under 1 µg/mL in the test on P. aeruginosa CDC-0095 and 8 to 16 µg/mL (≈ 10.1 to 20.1 µM) in the test with A. baumannii CDC-0033. The EC50 in test [1] was in the range of 50 to 250 µM.
In the case of `CCN1CCN(C(=O)NC(C(=O)N[C@H]2Cc3cccc(C(=O)O)c3OB2O)c2ccc(P(=O)(O)O)cc2F)C(=O)C1=O` (stereo partly drawn) [Example 1, (3R)-3-(2-(4-ethyl-2,3-dioxopiperazine-1-carboxamido)-2-(2-fluoro-4-phosphonophenyl)acetamido)-2-hydroxy-3,4-dihydro-2H-benzo[e][1,2]oxaborinine-8-carboxylic acid], the EC50 in test [1] was under 10 µM.
Consider `CCN1CCN(C(=O)NC(C(=O)N[C@H]2Cc3cccc(C(=O)O)c3OB2O)c2cc(P(=O)(O)O)ccc2F)C(=O)C1=O` (stereo partly drawn) [Example 2, (3R)-3-(2-(4-ethyl-2,3-dioxopiperazine-1-carboxamido)-2-(2-fluoro-5-phosphonophenyl)acetamido)-2-hydroxy-3,4-dihydro-2H-benzo[e][1,2]oxaborinine-8-carboxylic acid], for which the EC50 in test [1] was under 10 µM.
As for `NCCN1CCN(C(=O)NC(C(=O)N[C@H]2Cc3cccc(C(=O)O)c3OB2O)c2ccc(P(=O)(O)O)cc2)C(=O)C1=O` (stereo partly drawn) [Example 3, (3R)-3-(2-(4-(2-aminoethyl)-2,3-dioxopiperazine-1-carboxamido)-2-(4-phosphonophenyl)acetamido)-2-hydroxy-3,4-dihydro-2H-benzo[e][1,2]oxaborinine-8-carboxylic acid], in test [1], the EC50 lay within 10 to 50 µM.
The molecule `O=C(O)c1cccc2c1OB(O)[C@@H](NC(=O)C(NC(=O)N1CCN(CC(F)(F)F)C(=O)C1=O)c1ccc(P(=O)(O)O)cc1)C2` (stereo partly drawn) [Example 4, (3R)-3-(2-(2,3-dioxo-4-(2,2,2-trifluoroethyl)piperazine-1-carboxamido)-2-(4-phosphonophenyl)acetamido)-2-hydroxy-3,4-dihydro-2H-benzo[e][1,2]oxaborinine-8-carboxylic acid] came in with a concentration for a half-maximal effect (EC50) in test [1] of under 10 µM.
For the molecule `O=C(NCCCN1CCN(C(=O)NC(C(=O)N[C@H]2Cc3ccc(F)c(C(=O)O)c3OB2O)c2cc(F)c(O)c(O)c2Cl)C1=O)c1cccnc1` (stereo partly drawn) [Example 281, (3R)-3-(2-(2-chloro-5-fluoro-3,4-dihydroxyphenyl)-2-(3-(3-(nicotinamido)propyl)-2-oxoimidazolidine-1-carboxamido)acetamido)-7-fluoro-2-hydroxy-3,4-dihydro-2H-benzo[e][1,2]oxaborinine-8-carboxylic acid], the MIC with A. baumannii ATCC 19606 was under 1 µg/mL; with P. aeruginosa CDC-0095, 2 to 4 µg/mL (≈ 2.79 to 5.58 µM); in the test with A. baumannii CDC-0033 it was 2 to 4 µg/mL (≈ 2.79 to 5.58 µM). Further, the EC50 in test [1] fell in the range of 10 to 50 µM.
On to `O=C(NCCCN1CCN(C(=O)N[C@H](C(=O)N[C@H]2Cc3ccc(F)c(C(=O)O)c3OB2O)c2cc(F)c(O)c(O)c2Cl)C1=O)Nc1ccc(O)cc1` [Example 283, (R)-3-((S)-2-(2-chloro-5-fluoro-3,4-dihydroxyphenyl)-2-(3-(3-(3-(4-hydroxyphenyl)ureido)propyl)-2-oxoimidazolidine-1-carboxamido)acetamido)-7-fluoro-2-hydroxy-3,4-dihydro-2H-benzo[e][1,2]oxaborinine-8-carboxylic acid], for which the MIC in the test on A. baumannii ATCC 19606, in the test with P. aeruginosa CDC-0095 and in the test on A. baumannii CDC-0033 was over 128 µg/mL each time. In test [1], this molecule registered an EC50 of over 250 µM.
With `O=C(NCCS(=O)(=O)N1CCN(C(=O)N[C@H](C(=O)N[C@H]2Cc3ccc(F)c(C(=O)O)c3OB2O)c2cc(F)c(O)c(O)c2Cl)C1=O)c1ccc(O)cc1` [Example 286, (R)-3-((S)-2-(2-chloro-5-fluoro-3,4-dihydroxyphenyl)-2-(3-((2-(4-hydroxybenzamido)ethyl)sulfonyl)-2-oxoimidazolidine-1-carboxamido)acetamido)-7-fluoro-2-hydroxy-3,4-dihydro-2H-benzo[e][1,2]oxaborinine-8-carboxylic acid], the MIC in the test with A. baumannii ATCC 19606, in the test on P. aeruginosa CDC-0095 and in the test with A. baumannii CDC-0033 was over 128 µg/mL in each case. This molecule also returned an EC50 in test [1] of over 250 µM.
For `O=C(NCCS(=O)(=O)N1CCN(C(=O)NC(C(=O)N[C@H]2Cc3ccc(F)c(C(=O)O)c3OB2O)c2cc(F)c(O)c(O)c2Cl)C1=O)c1ccncc1` (stereo partly drawn) [Example 288, (3R)-3-(2-(2-chloro-5-fluoro-3,4-dihydroxyphenyl)-2-(3-((2-(isonicotinamido)ethyl)sulfonyl)-2-oxoimidazolidine-1-carboxamido)acetamido)-7-fluoro-2-hydroxy-3,4-dihydro-2H-benzo[e][1,2]oxaborinine-8-carboxylic acid], the figures for the MIC with A. baumannii ATCC 19606, with P. aeruginosa CDC-0095 and in the test with A. baumannii CDC-0033 were under 1 µg/mL, 8 to 16 µg/mL (≈ 10.4 to 20.9 µM) and 8 to 16 µg/mL (≈ 10.4 to 20.9 µM), respectively. Moreover, the EC50 in test [1] is under 10 µM.
Take `O=C(NCCCS(=O)(=O)N1CCN(C(=O)NC(C(=O)N[C@H]2Cc3ccc(F)c(C(=O)O)c3OB2O)c2cc(F)c(O)c(O)c2Cl)C1=O)Nc1ccncc1` (stereo partly drawn) [Example 291, (3R)-3-(2-(2-chloro-5-fluoro-3,4-dihydroxyphenyl)-2-(2-oxo-3-((3-(3-(pyridin-4-yl)ureido)propyl)sulfonyl)imidazolidine-1-carboxamido)acetamido)-7-fluoro-2-hydroxy-3,4-dihydro-2H-benzo[e][1,2]oxaborinine-8-carboxylic acid]: the MIC in the test with A. baumannii ATCC 19606 is under 1 µg/mL; in the test with P. aeruginosa CDC-0095, over 128 µg/mL; in the test with A. baumannii CDC-0033, 2 to 4 µg/mL (≈ 2.51 to 5.03 µM). The same molecule showed an EC50 in test [1] of under 10 µM.
For `O=C(O)c1c(F)ccc2c1OB(O)[C@@H](NC(=O)C(NC(=O)N1CCN(Cc3ccc(O)c(O)c3Cl)C(=O)C1=O)c1cc(F)c(O)c(O)c1Cl)C2` (stereo partly drawn) [Example 292, (3R)-3-(2-(4-(2-chloro-3,4-dihydroxybenzyl)-2,3-dioxopiperazine-1-carboxamido)-2-(2-chloro-5-fluoro-3,4-dihydroxyphenyl)acetamido)-7-fluoro-2-hydroxy-3,4-dihydro-2H-benzo[e][1,2]oxaborinine-8-carboxylic acid] the same measures were over 128 µg/mL, over 128 µg/mL, over 128 µg/mL and under 10 µM.
Consider `O=C(NCCCN1CCN(C(=O)N[C@@H](C(=O)N[C@H]2Cc3ccc(F)c(C(=O)O)c3OB2O)c2cc(F)c(O)c(O)c2Cl)C(=O)C1=O)c1ccncc1` [Example 294, (R)-3-((R)-2-(2-chloro-5-fluoro-3,4-dihydroxyphenyl)-2-(4-(3-(isonicotinamido)propyl)-2,3-dioxopiperazine-1-carboxamido)acetamido)-7-fluoro-2-hydroxy-3,4-dihydro-2H-benzo[e][1,2]oxaborinine-8-carboxylic acid], for which the results for the MIC with A. baumannii ATCC 19606, with P. aeruginosa CDC-0095 and in the test with A. baumannii CDC-0033 were under 1 µg/mL, under 1 µg/mL and 2 to 4 µg/mL (≈ 2.69 to 5.37 µM), respectively. The EC50 in test [1] was under 10 µM.
For the molecule `O=C(NCCCN1CCN(C(=O)N[C@H](C(=O)N[C@H]2Cc3ccc(F)c(C(=O)O)c3OB2O)c2cc(F)c(O)c(O)c2Cl)C(=O)C1=O)c1ccnc(F)c1F` [Example 299, (R)-3-((S)-2-(2-chloro-5-fluoro-3,4-dihydroxyphenyl)-2-(4-(3-(2,3-difluoroisonicotinamido)propyl)-2,3-dioxopiperazine-1-carboxamido)acetamido)-7-fluoro-2-hydroxy-3,4-dihydro-2H-benzo[e][1,2]oxaborinine-8-carboxylic acid], the MIC lay within 2 to 4 µg/mL (≈ 2.56 to 5.12 µM) in the test with A. baumannii ATCC 19606, 2 to 4 µg/mL (≈ 2.56 to 5.12 µM) in the test with P. aeruginosa CDC-0095 and 8 to 16 µg/mL (≈ 10.2 to 20.5 µM) in the test with A. baumannii CDC-0033. Moreover, the EC50 in test [1] is over 250 µM.
With `O=C(NCCCN1CCN(C(=O)N[C@H](C(=O)N[C@H]2Cc3ccc(F)c(C(=O)O)c3OB2O)c2cc(F)c(O)c(O)c2Cl)C(=O)C1=O)c1cccc(O)c1Cl` [Example 302, (R)-3-((S)-2-(4-(3-(2-chloro-3-hydroxybenzamido)propyl)-2,3-dioxopiperazine-1-carboxamido)-2-(2-chloro-5-fluoro-3,4-dihydroxyphenyl)acetamido)-7-fluoro-2-hydroxy-3,4-dihydro-2H-benzo[e][1,2]oxaborinine-8-carboxylic acid], the figures for the MIC in the test on A. baumannii ATCC 19606, in the test on P. aeruginosa CDC-0095 and in the test on A. baumannii CDC-0033 were 32 to 64 µg/mL (≈ 40.3 to 80.6 µM), over 128 µg/mL and over 128 µg/mL, respectively. Further, the half-maximal effective concentration (EC50) in test [1] is over 250 µM.

The record behind these values is patent US20240270762A1, “PENICILLIN-BINDING PROTEIN INHIBITORS” (priority 2021, published 2024).
